Results from patent US20250382332A1, “NOVEL ALPHA-FACTOR BASED PEPTIDES WITH ANTIFUNGAL ACTIVITY” (INVAIO SCIENCES, INC., priority 2024, published 2025).
Peptide text beside a SMILES is read from it.

System: Botrytis cinerea (B05.10)
Assay: Resazurin antifungal assay of 180 alpha-factor peptide variants towards Botrytis (Example 2)
Format: cell-based
Design: key to active against Botrytis at 15 μM / active against Botrytis at 10 μM: Peptides that showed greater than 90% inhibition were considered active against Botrytis
Details: for Inhibition at 10 μM / Inhibition at 15 μM / Inhibition at 20 μM / Inhibition at 50 μM / Inhibition at 100 μM: % inhibition of fungal growth, Botrytis conidia, resazurin; for Inhibition at 15 μM / active against Botrytis at 15 μM: peptide 15 μM; for Inhibition at 20 μM: peptide 20 μM; for Inhibition at 50 μM: peptide 50 μM; for Inhibition at 100 μM: peptide 100 μM
Procedure, shortened: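 B. cinerea B05.10 conidia (5000/well) were exposed to peptides at 100, 50, 20, 15 and 10 μM final for 24 h at 20° C. Resazurin was then added and fluorescence read at 570/620 nm. Percent growth inhibition was calculated against conidia-only wells, with four technical replicates.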

Row | Compound | Inhibition at 10 μM (peptide 10 μM) | Inhibition at 15 μM | Inhibition at 20 μM | Inhibition at 50 μM | Inhibition at 100 μM | active against Botrytis at 15 μM | active against Botrytis at 10 μM (peptide 10 μM)
1 | CC[C@H](C)[C@H](NC(=O)[C@H](Cc1c[nH]c2ccccc12)NC(=O)[C@H](Cc1c[nH]cn1)NC(=O)[C@@H](N)CCCCN)C(=O)N[C@H](C(=O)N[C@@H](CC(C)C)C(=O)N[C@@H](CCCCN)C(=O)N[C@@H](CO)C(=O)NCC(=O)N[C@@H](CCSC)C(=O)N1CCC[C@H]1C(=O)N[C@@H](CCSC)C(=O)N[C@@H](Cc1ccc(O)cc1)C(=O)O)[C@@H](C)O [compound 59] (H-KHWITLKSGMPMY-OH; N-terminus and C-terminus assumed) | <90% | <90% | 90.97% | 100% | 100% | – | –
2 | CC[C@H](C)[C@H](NC(=O)[C@H](CCCCN)NC(=O)[C@H](CC(C)C)NC(=O)[C@H](CCC(N)=O)NC(=O)[C@H](CC(C)C)NC(=O)[C@@H](NC(=O)[C@H](CCCCN)NC(=O)[C@@H](N)Cc1c[nH]c2ccccc12)[C@@H](C)O)C(=O)NCC(=O)N[C@@H](C)C(=O)N1CCC[C@H]1C(=O)N[C@@H](CCSC)C(=O)N[C@@H](Cc1ccc(O)cc1)C(=O)O [compound 60] (H-WKTLQLKIGAPMY-OH; N-terminus and C-terminus assumed) | <90% | – | <90% | 100% | 100% | – | –
3 | CSCC[C@H](NC(=O)[C@@H]1CCCN1C(=O)[C@H](CCC(N)=O)NC(=O)CNC(=O)[C@@H]1CCCN1C(=O)[C@H](Cc1ccccc1)NC(=O)[C@H](CC(C)C)NC(=O)[C@H](CCCCN)NC(=O)[C@H](CC(C)C)NC(=O)[C@H](Cc1c[nH]c2ccccc12)NC(=O)[C@H](Cc1c[nH]cn1)NC(=O)[C@@H](N)CCCCN)C(=O)N[C@@H](Cc1ccc(O)cc1)C(=O)O [compound 61] (H-KHWLKLFPGQPMY-OH; N-terminus and C-terminus assumed) | <90% | <90% | 98.64% | 100% | 100% | – | –
4 | CC[C@H](C)[C@H](NC(=O)[C@H](CCCCN)NC(=O)[C@@H](NC(=O)[C@H](CCCCN)NC(=O)[C@H](CC(C)C)NC(=O)[C@H](Cc1c[nH]c2ccccc12)NC(=O)[C@H](Cc1c[nH]cn1)NC(=O)[C@@H](N)CCCCN)[C@@H](C)CC)C(=O)NCC(=O)N[C@@H](CCC(=O)O)C(=O)N1CCC[C@H]1C(=O)N[C@@H](CCSC)C(=O)N[C@@H](Cc1ccc(O)cc1)C(=O)O [compound 62] (H-KHWLKIKIGEPMY-OH; N-terminus and C-terminus assumed) | <90% | 98.89% | 100% | 100% | 100% | active | –
5 | CC[C@H](C)[C@H](NC(=O)[C@H](CCC(N)=O)NC(=O)[C@H](CC(C)C)NC(=O)[C@H](Cc1c[nH]c2ccccc12)NC(=O)[C@H](CCCNC(=N)N)NC(=O)[C@@H]1CCCN1)C(=O)N[C@@H](CCCCN)C(=O)N[C@@H](CCCCN)C(=O)NCC(=O)N[C@@H](CCC(N)=O)C(=O)N[C@@H](CO)C(=O)N[C@@H](CCSC)C(=O)N[C@@H](Cc1ccc(O)cc1)C(=O)O [compound 63] (H-PRWLQIKKGQSMY-OH; N-terminus and C-terminus assumed) | <90% | – | <90% | 100% | 100% | – | –
6 | CSCC[C@H](NC(=O)CNC(=O)[C@H](CO)NC(=O)CNC(=O)[C@@H]1CCCN1C(=O)[C@H](CCCCN)NC(=O)[C@H](Cc1ccccc1)NC(=O)[C@H](CCC(N)=O)NC(=O)[C@H](CC(C)C)NC(=O)[C@H](Cc1c[nH]c2ccccc12)NC(=O)[C@H](Cc1c[nH]cn1)NC(=O)[C@@H](N)CCCCN)C(=O)N[C@@H](Cc1ccc(O)cc1)C(=O)O [compound 64] (H-KHWLQFKPGSGMY-OH; N-terminus and C-terminus assumed) | <90% | <90% | 98.09% | 100% | 100% | – | –
7 | CSCC[C@H](NC(=O)[C@@H]1CCCN1C(=O)[C@H](CCC(N)=O)NC(=O)CNC(=O)[C@@H](NC(=O)[C@H](CCCNC(=N)N)NC(=O)[C@H](CC(C)C)NC(=O)[C@H](CC(N)=O)NC(=O)[C@@H](NC(=O)[C@H](Cc1c[nH]c2ccccc12)NC(=O)[C@H](CCCCN)NC(=O)[C@@H](N)Cc1c[nH]c2ccccc12)C(C)C)[C@@H](C)O)C(=O)N[C@@H](Cc1ccc(O)cc1)C(=O)O [compound 65] (H-WKWVNLRTGQPMY-OH; N-terminus and C-terminus assumed) | <90% | – | <90% | 100% | 100% | – | –
8 | CC[C@H](C)[C@H](NC(=O)[C@H](Cc1c[nH]c2ccccc12)NC(=O)[C@H](Cc1c[nH]cn1)NC(=O)[C@@H]1CCCN1)C(=O)N[C@@H](CO)C(=O)N[C@@H](CC(C)C)C(=O)N[C@@H](CCCCN)C(=O)N[C@@H](CCCCN)C(=O)NCC(=O)N[C@@H](CCC(N)=O)C(=O)N1CCC[C@H]1C(=O)N[C@@H](CCSC)C(=O)N[C@@H](Cc1ccc(O)cc1)C(=O)O [compound 66] (H-PHWISLKKGQPMY-OH; N-terminus and C-terminus assumed) | <90% | <90% | 96.17% | 100% | 100% | – | –
9 | CC[C@H](C)[C@H](NC(=O)[C@H](CCCNC(=N)N)NC(=O)[C@H](CC(C)C)NC(=O)[C@H](CCSC)NC(=O)[C@H](Cc1c[nH]cn1)NC(=O)[C@@H](N)CCCCN)C(=O)N[C@@H](CCCCN)C(=O)N1CCC[C@H]1C(=O)NCC(=O)N[C@@H](CCC(N)=O)C(=O)N1CCC[C@H]1C(=O)N[C@@H](CCSC)C(=O)N[C@@H](Cc1ccc(O)cc1)C(=O)O [compound 67] (H-KHMLRIKPGQPMY-OH; N-terminus and C-terminus assumed) | <90% | <90% | 97.68% | 100% | 100% | – | –
10 | CSCC[C@H](NC(=O)[C@@H]1CCCN1C(=O)[C@H](CCC(N)=O)NC(=O)CNC(=O)[C@H](C)NC(=O)[C@H](CCCNC(=N)N)NC(=O)[C@H](CC(C)C)NC(=O)[C@H](CCCNC(=N)N)NC(=O)CNC(=O)[C@H](Cc1c[nH]c2ccccc12)NC(=O)[C@H](Cc1c[nH]cn1)NC(=O)[C@@H](N)CCCCN)C(=O)N[C@@H](Cc1ccc(O)cc1)C(=O)O [compound 68] (H-KHWGRLRAGQPMY-OH; N-terminus and C-terminus assumed) | 97.09% | 99.23% | 100% | 100% | 100% | active | active
11 | CSCC[C@H](NC(=O)[C@@H]1CCCN1C(=O)[C@H](CCC(N)=O)NC(=O)CNC(=O)[C@@H]1CCCN1C(=O)[C@H](CC(N)=O)NC(=O)[C@H](CC(C)C)NC(=O)[C@H](CCCNC(=N)N)NC(=O)[C@H](CC(C)C)NC(=O)[C@H](Cc1c[nH]c2ccccc12)NC(=O)[C@H](Cc1c[nH]cn1)NC(=O)[C@@H](N)CCCCN)C(=O)N[C@@H](Cc1ccc(O)cc1)C(=O)O [compound 69] (H-KHWLRLNPGQPMY-OH; N-terminus and C-terminus assumed) | <90% | <90% | 95.74% | 100% | 100% | – | –
12 | CSCC[C@H](NC(=O)[C@H](CO)NC(=O)[C@H](CCC(N)=O)NC(=O)CNC(=O)[C@@H]1CCCN1C(=O)[C@H](CCCCN)NC(=O)[C@H](CC(C)C)NC(=O)[C@H](CCCNC(=N)N)NC(=O)[C@H](CC(C)C)NC(=O)[C@H](Cc1ccc(O)cc1)NC(=O)[C@H](Cc1c[nH]cn1)NC(=O)[C@@H](N)Cc1c[nH]c2ccccc12)C(=O)N[C@@H](Cc1ccc(O)cc1)C(=O)O [compound 70] (H-WHYLRLKPGQSMY-OH; N-terminus and C-terminus assumed) | <90% | – | <90% | 100% | 100% | – | –
13 | CC[C@H](C)[C@H](NC(=O)[C@H](Cc1c[nH]c2ccccc12)NC(=O)[C@H](Cc1c[nH]cn1)NC(=O)[C@@H](N)Cc1c[nH]c2ccccc12)C(=O)N[C@@H](CCC(N)=O)C(=O)N[C@@H](CC(C)C)C(=O)N[C@@H](CCCCN)C(=O)N[C@@H](CCCCN)C(=O)NCC(=O)N[C@@H](CCC(=O)O)C(=O)N1CCC[C@H]1C(=O)N[C@@H](CCSC)C(=O)N[C@@H](Cc1ccc(O)cc1)C(=O)O [compound 71] (H-WHWIQLKKGEPMY-OH; N-terminus and C-terminus assumed) | <90% | – | <90% | 100% | 100% | – | –
14 | CSCC[C@H](NC(=O)[C@@H]1CCCN1C(=O)[C@H](CCC(N)=O)NC(=O)CNC(=O)[C@@H]1CCCN1C(=O)[C@H](CCCCN)NC(=O)[C@H](Cc1ccccc1)NC(=O)[C@H](CCCCN)NC(=O)[C@H](CC(C)C)NC(=O)[C@H](Cc1ccc(O)cc1)NC(=O)[C@H](Cc1c[nH]cn1)NC(=O)[C@@H](N)CCCCN)C(=O)N[C@@H](Cc1ccc(O)cc1)C(=O)O [compound 72] (H-KHYLKFKPGQPMY-OH; N-terminus and C-terminus assumed) | <90% | 98.60% | 100% | 100% | 100% | active | –
